# Measurements published in PubChem BioAssay AID330 (DTP/NCI, 2004).
# Values joined by “and” are separate entries in the source; they are usually repeats but may differ in a detail not shown here. Identical values can stand only once. Inconclusive results and toxic doses are left out.
# Test system: P388 leukemia ip, CD2F1 mice, survival T/C
# Experiment: NCI In Vivo Anticancer Drug Screen. Data for tumor model P388 Leukemia (intraperitoneal) in CD2F1 (CDF1) mice
# Conditions: endpoint: median survival time, higher = longer survival
# Method in brief: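 Mice carrying the transplanted tumor received test compound or vehicle. Survival was recorded in each group, and the value is the treated-group measurement divided by that of the vehicle-treated control group.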
# [1] = dose: 50.0 mg/kg/injection, schedule: Q01DX009 (ip), vehicle: saline with Tween-80
# [2] = dose: 100.0 mg/kg/injection, schedule: Q01DX009 (ip), vehicle: saline with Tween-80
# [3] = dose: 200.0 mg/kg/injection, schedule: Q01DX009 (ip), vehicle: saline with Tween-80
# [4] = dose: 50.0 mg/kg/injection, schedule: Q01DX009 (ip), vehicle: saline
# [5] = dose: 100.0 mg/kg/injection, schedule: Q01DX009 (ip), vehicle: saline
# [6] = dose: 200.0 mg/kg/injection, schedule: Q01DX009 (ip), vehicle: saline
# [7] = dose: 12.5 mg/kg/injection, schedule: Q01DX009 (ip), vehicle: saline with Tween-80
# [8] = dose: 25.0 mg/kg/injection, schedule: Q01DX009 (ip), vehicle: saline with Tween-80
# [9] = dose: 60.0 mg/kg/injection, schedule: Q01DX005 (ip), vehicle: saline with Tween-80
# [10] = dose: 120.0 mg/kg/injection, schedule: Q01DX005 (ip), vehicle: saline with Tween-80
# [11] = dose: 240.0 mg/kg/injection, schedule: Q01DX005 (ip), vehicle: saline with Tween-80
# [12] = dose: 50.0 mg/kg/injection, schedule: Q01DX005 (ip), vehicle: Klucel (hydroxypropylcellulose) (HPC)
# [13] = dose: 100.0 mg/kg/injection, schedule: Q01DX005 (ip), vehicle: Klucel (hydroxypropylcellulose) (HPC)
# [14] = dose: 200.0 mg/kg/injection, schedule: Q01DX005 (ip), vehicle: Klucel (hydroxypropylcellulose) (HPC)
structure (smiles),measurement,setting,value
CCN(CC)CC[n+]1ccc2c(C)c3[nH]c4ccc(O)cc4c3c(C)c2c1,T/C,"dose: 1.56 mg/kg/injection, schedule: Q04DX003 (ip), vehicle: saline",167 % of control
same,T/C,"dose: 1.56 mg/kg/injection, schedule: Q04DX003 (ip), vehicle: suspension in saline",155 % of control
same,T/C,"dose: 1.56 mg/kg/injection, schedule: Q04DX003 (ip), vehicle: water",156 % of control
same,T/C,"dose: 3.12 mg/kg/injection, schedule: Q04DX003 (ip), vehicle: saline",155 % of control
same,T/C,"dose: 3.12 mg/kg/injection, schedule: Q04DX003 (ip), vehicle: suspension in saline",169 % of control
same,T/C,"dose: 3.12 mg/kg/injection, schedule: Q04DX003 (ip), vehicle: water",161 % of control
same,T/C,"dose: 6.25 mg/kg/injection, schedule: Q04DX003 (ip), vehicle: saline",180 % of control and 213 % of control
same,T/C,"dose: 6.25 mg/kg/injection, schedule: Q04DX003 (ip), vehicle: suspension in saline",169 % of control
same,T/C,"dose: 6.25 mg/kg/injection, schedule: Q04DX003 (ip), vehicle: water",166 % of control
same,T/C,"dose: 12.5 mg/kg/injection, schedule: Q04DX003 (ip), vehicle: saline",174 % of control and 177 % of control
same,T/C,"dose: 12.5 mg/kg/injection, schedule: Q04DX003 (ip), vehicle: suspension in saline",226 % of control
same,T/C,"dose: 12.5 mg/kg/injection, schedule: Q04DX003 (ip), vehicle: water",181 % of control
same,T/C,"dose: 25.0 mg/kg/injection, schedule: Q04DX003 (ip), vehicle: saline",194 % of control and 210 % of control
same,T/C,"dose: 25.0 mg/kg/injection, schedule: Q04DX003 (ip), vehicle: suspension in saline",164 % of control
same,T/C,"dose: 50.0 mg/kg/injection, schedule: Q04DX003 (ip), vehicle: saline",178 % of control and 203 % of control
same,T/C,"dose: 50.0 mg/kg/injection, schedule: Q04DX003 (ip), vehicle: suspension in saline",180 % of control
CC1(c2ccc3c(c2)OCO3)OC(CCl)CS1 (configuration not stated),T/C,[1],101 % of control
same,T/C,[2],101 % of control
same,T/C,[3],101 % of control
OC1CCc2ncccc2O1 (configuration not stated),T/C,[4],102 % of control
same,T/C,[5],102 % of control
same,T/C,[6],102 % of control
C(=N/NC1=NCCN1)/c1ccnc2ccccc12,T/C,"dose: 15.0 mg/kg/injection, schedule: Q01DX005 (ip), vehicle: saline",100 % of control
same,T/C,"dose: 30.0 mg/kg/injection, schedule: Q01DX005 (ip), vehicle: saline",98 % of control
same,T/C,"dose: 60.0 mg/kg/injection, schedule: Q01DX005 (ip), vehicle: saline",101 % of control and 92 % of control
COCCC/C=C\N1CCOCC1,T/C,[4],99 % of control
same,T/C,[5],101 % of control
same,T/C,[6],95 % of control
O=[N+]([O-])c1cnc(/C=N/N2CCN(/N=C/c3ncc([N+](=O)[O-])[nH]3)CC2)[nH]1,T/C,[7],90 % of control
same,T/C,[8],89 % of control
same,T/C,[1],88 % of control
O=C1OCc2cc3c(cc2-c2ccccc21)OCO3,T/C,"dose: 100.0 mg/kg/injection, schedule: Q04DX002 (ip), vehicle: saline with Tween-80",95 % of control
same,T/C,"dose: 200.0 mg/kg/injection, schedule: Q04DX002 (ip), vehicle: saline with Tween-80",101 % of control
same,T/C,"dose: 400.0 mg/kg/injection, schedule: Q04DX002 (ip), vehicle: saline with Tween-80",91 % of control
C/C=C(/CN/C(=C\[N+](=O)[O-])c1ccccc1)c1ccccc1,T/C,[9],102 % of control
same,T/C,[10],100 % of control
same,T/C,[11],95 % of control
O=C(Nc1ccccc1)Nc1nccs1,T/C,[1],92 % of control
same,T/C,[2],96 % of control
same,T/C,[3],93 % of control
COc1ccc2[nH]c3c(C)c4cc[n+](C)c(C)c4cc3c2c1,T/C,"dose: 1.56 mg/kg/injection, schedule: Q04DX002 (ip), vehicle: water",97 % of control
same,T/C,"dose: 3.12 mg/kg/injection, schedule: Q04DX002 (ip), vehicle: water",104 % of control
same,T/C,"dose: 6.25 mg/kg/injection, schedule: Q04DX002 (ip), vehicle: water",107 % of control
same,T/C,"dose: 10.0 mg/kg/injection, schedule: Q04DX002 (ip), vehicle: water",200 % of control
same,T/C,"dose: 12.5 mg/kg/injection, schedule: Q04DX002 (ip), vehicle: water",113 % of control
same,T/C,"dose: 20.0 mg/kg/injection, schedule: Q04DX002 (ip), vehicle: water",115 % of control
same,T/C,"dose: 25.0 mg/kg/injection, schedule: Q04DX002 (ip), vehicle: water",117 % of control
same,T/C,"dose: 40.0 mg/kg/injection, schedule: Q04DX002 (ip), vehicle: water",112 % of control
same,T/C,"dose: 50.0 mg/kg/injection, schedule: Q04DX002 (ip), vehicle: water",123 % of control
Nn1cn[nH]c1=S,T/C,"dose: 25.0 mg/kg/injection, schedule: Q01DX009 (ip), vehicle: saline",100 % of control
same,T/C,[4],97 % of control
same,T/C,[5],98 % of control
same,T/C,[6],100 % of control
Nc1ccc2cc3c(nc2n1)[nH]c1ccccc13,T/C,"dose: 1.56 mg/kg/injection, schedule: Q01DX009 (ip), vehicle: saline with Tween-80",97 % of control
same,T/C,"dose: 3.12 mg/kg/injection, schedule: Q01DX009 (ip), vehicle: saline with Tween-80",103 % of control
same,T/C,"dose: 6.25 mg/kg/injection, schedule: Q01DX009 (ip), vehicle: saline with Tween-80",100 % of control
same,T/C,[7],102 % of control
same,T/C,[8],118 % of control
CN1CCC(COC(=O)CC(C)(C)C)C1 (configuration not stated),T/C,"dose: 3.13 mg/kg/injection, schedule: Q01DX009 (ip), vehicle: water",105 % of control
same,T/C,"dose: 6.25 mg/kg/injection, schedule: Q01DX009 (ip), vehicle: water",100 % of control
same,T/C,"dose: 12.5 mg/kg/injection, schedule: Q01DX009 (ip), vehicle: water",99 % of control
same,T/C,"dose: 25.0 mg/kg/injection, schedule: Q01DX009 (ip), vehicle: water",101 % of control
same,T/C,"dose: 50.0 mg/kg/injection, schedule: Q01DX009 (ip), vehicle: water",105 % of control
same,T/C,"dose: 100.0 mg/kg/injection, schedule: Q01DX009 (ip), vehicle: water",101 % of control
CN1CCOC(=O)C(C#N)=C1c1ccccc1,T/C,[9],110 % of control
same,T/C,[10],108 % of control
same,T/C,[11],98 % of control
CN(C)c1ccc(C(=O)C2(Cl)CCCCC2)cc1,T/C,"dose: 100.0 mg/kg/injection, schedule: Q01DX001 (ip), vehicle: Klucel (hydroxypropylcellulose) (HPC)",97 % of control
same,T/C,"dose: 200.0 mg/kg/injection, schedule: Q01DX001 (ip), vehicle: Klucel (hydroxypropylcellulose) (HPC)",100 % of control
same,T/C,"dose: 400.0 mg/kg/injection, schedule: Q01DX001 (ip), vehicle: Klucel (hydroxypropylcellulose) (HPC)",96 % of control
NN/C(N)=N/S(=O)(=O)c1ccccc1,T/C,[12],107 % of control
same,T/C,[13],102 % of control
Nc1ccc(N2CCSCC2)nc1,T/C,[4],104 % of control
same,T/C,[5],101 % of control
same,T/C,[6],96 % of control
COc1ccc(N2CCCSC2=S)cc1,T/C,"dose: 50.0 mg/kg/injection, schedule: Q01DX005 (ip), vehicle: saline + Tween-80 + alcohol",101 % of control
same,T/C,"dose: 100.0 mg/kg/injection, schedule: Q01DX005 (ip), vehicle: saline + Tween-80 + alcohol",101 % of control
same,T/C,"dose: 200.0 mg/kg/injection, schedule: Q01DX005 (ip), vehicle: saline + Tween-80 + alcohol",100 % of control
CC(C)=CCCC(C)(O)C1CC=C(C)CC1 (configuration not stated),T/C,"dose: 20.0 mg/kg/injection, schedule: Q01DX005 (ip), vehicle: Klucel (hydroxypropylcellulose) (HPC)",95 % of control
same,T/C,"dose: 40.0 mg/kg/injection, schedule: Q01DX005 (ip), vehicle: Klucel (hydroxypropylcellulose) (HPC)",95 % of control
same,T/C,"dose: 80.0 mg/kg/injection, schedule: Q01DX005 (ip), vehicle: Klucel (hydroxypropylcellulose) (HPC)",98 % of control
same,T/C,"dose: 160.0 mg/kg/injection, schedule: Q01DX005 (ip), vehicle: Klucel (hydroxypropylcellulose) (HPC)",98 % of control
S=C(Nc1ccccc1)P(c1ccccc1)c1ccccc1,T/C,[12],111 % of control and 99 % of control
same,T/C,[13],116 % of control and 89 % of control
same,T/C,[14],111 % of control and 89 % of control
C=CC(=O)NN=C(c1ccccc1)c1ccccc1,T/C,"dose: 42.0 mg/kg/injection, schedule: Q01DX009 (ip), vehicle: saline with Tween-80",98 % of control
same,T/C,"dose: 84.0 mg/kg/injection, schedule: Q01DX009 (ip), vehicle: saline with Tween-80",103 % of control
same,T/C,"dose: 168.0 mg/kg/injection, schedule: Q01DX009 (ip), vehicle: saline with Tween-80",100 % of control
COC1(OC)/C(=C/Cl)CC2(C)C(=O)NC(=O)C21Cl (configuration not stated),T/C,"dose: 25.0 mg/kg/injection, schedule: Q01DX005 (ip), vehicle: Klucel (hydroxypropylcellulose) (HPC)",106 % of control
same,T/C,[12],105 % of control
same,T/C,[13],105 % of control
same,T/C,[14],106 % of control
